Laboratory results taken from PMC10298926, “Biophysical Characterization of the Binding Mechanism between the MATH Domain of SPOP and Its Physiological Partners” (International Journal of Molecular Sciences, 2023).
Where a SMILES comes first, the peptide text is derived from it.

What was measured:
[1] = target: T1, SPOP MATH D131A (Homo sapiens, UniProt O43791, C159S/C23S/C44S/C68S/C93S/D130A); assay: Stopped-flow displacement; assay type: binding
T1 construct: engineered MATH domain of SPOP protein (residues 1–182); His-tag; made in house; host or cells: Escherichia coli BL21 (DE3)
T1 sequence (O43791 1-182 C23S/C44S/C68S/C93S/D130A/C159S): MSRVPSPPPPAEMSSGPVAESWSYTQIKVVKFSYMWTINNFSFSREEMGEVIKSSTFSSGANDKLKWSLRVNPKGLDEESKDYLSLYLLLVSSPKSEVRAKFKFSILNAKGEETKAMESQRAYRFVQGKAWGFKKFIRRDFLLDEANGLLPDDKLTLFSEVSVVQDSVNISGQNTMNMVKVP
Excerpt: (§1) To quantitatively address the role of specific residues in the binding mechanism of SPOP MATH, we resorted to taking advantage of the site-directed mutagenesis and generated ten site-directed mutants corresponding to the residues located in the binding pocket of the SPOP MATH domain. In particular, we produced a set of single mutants where residues R71, Y88, F103, Y124, F125, K130, D131, W132, F134, and K135 were substituted with alanine.
Microscopic dissociation rate constants (koff) were directly measured by performing displacement experiments on an Applied Photophysics DX-17MV stopped-flow apparatus (Applied Photophysics). A preincubated complex of MATH domain and dansylated peptides at a constant concentration (both 8 µM) was rapidly mixed with an excess of nondansylated peptides (50 μM). The samples were excited at 280 nm and fluorescence emission was collected by using a 330 ± 30 nm bandpass filter. The experiments were performed at 298 K in the same buffer used for the binding experiments. The observed rate constants were calculated from the average of five single traces. The observed kinetics were consistent with a single exponential decay.

[2] = target: SPOP MATH F134A (Homo sapiens, UniProt O43791, F133A, form not given); assay: Stopped-flow pseudo-first-order binding kinetics; details: dansylated Puc, 298 K
Protocol: as §1
(§2) Binding kinetic experiments were performed on an Applied Photophysics DX-17MV stopped-flow apparatus (Applied Photophysics, Leatherhead, UK). Pseudo-first-order binding experiments were performed by mixing a constant concentration (2 μM) of MATH domain with increasing dansylated peptides concentrations, from 2 to 10 μM of Puc and MacroH2A, and 2 to 40 µM of PTEN. The samples were excited at 280 nm, and the emission fluorescence was recorded by using a bandpass 320 nm cutoff filter. The experiments were performed at 298 K. For ionic strength dependence with Puc and MacroH2A, the buffers used were 50 mM sodium-HEPES, pH 7.2, supplemented with 50 mM, 100 mM, 200 mM, or 500 mM of sodium chloride (NaCl). For the PTEN binding salt dependence experiments, lower concentrations of salt were added for the previous buffer list mentioned (10 mM, 25 mM, and 50 mM of sodium chloride). For each acquisition, five traces were collected, averaged, and satisfactorily fitted to a single exponential equation.

[3] = target: T2, SPOP MATH K135A (Homo sapiens, UniProt O43791, C159S/C44S/C68S/C93S/K134A); assay: Stopped-flow pseudo-first-order binding kinetics; details: dansylated Puc, 298 K
T2 construct: engineered MATH domain of SPOP protein (residues 1–182); His-tag; made in house; host or cells: Escherichia coli BL21 (DE3)
Protocol: as §1, §2

[4] = target: SPOP MATH R71A (Homo sapiens, UniProt O43791, R70A, form not given); assay: Stopped-flow pseudo-first-order binding kinetics; details: dansylated Puc, 298 K
Protocol: as §1, §2

[5] = target: SPOP MATH D131A (Homo sapiens, UniProt O43791, D130A, form not given); assay: Stopped-flow pseudo-first-order binding kinetics; details: dansylated Puc, 298 K
Protocol: as §1, §2

[6] = target: SPOP MATH Y125A (Homo sapiens, UniProt O43791, Y123A, form not given); assay: Stopped-flow pseudo-first-order binding kinetics; details: dansylated Puc, 298 K
Protocol: as §1, §2

[7] = target: SPOP MATH Y88A (Homo sapiens, UniProt O43791, Y87A, form not given); assay: Stopped-flow pseudo-first-order binding kinetics; details: dansylated Puc, 298 K
Protocol: as §1, §2

[8] = target: SPOP MATH K130A (Homo sapiens, UniProt O43791, K129A, form not given); assay: Stopped-flow pseudo-first-order binding kinetics; details: dansylated Puc, 298 K
Protocol: as §1, §2

[9] = target: SPOP MATH WT (Homo sapiens, UniProt O43791); assay: Stopped-flow displacement; assay type: binding; details: preincubated complex (both 8 µM) mixed with 50 μM nondansylated peptide, 298 K, average of five single traces
SPOP MATH WT, sequence (O43791 1-182): as the sequence (O43791 1-182 C23S/C44S/C68S/C93S/D130A/C159S) above, with S23C, S44C, S68C, S93C, A130D, S159C counted along it
Protocol: To infer the mechanism of recognition of SPOP MATH, we resorted to performing time-resolved kinetic experiments. SPOP MATH was rapidly mixed with increasing concentrations of dansylated peptides (from 2 to 10 µM for Puc and MacroH2A, and from 2 to 40 µM for PTEN) in a stopped-flow apparatus at 298 K. The binding traces obtained by monitoring the time-resolved fluorescence were satisfactorily fitted to a single exponential equation, allowing calculating the observed rate constants kobs at different peptide concentrations. We then plotted the kobs values over the concentration of dansylated peptide and fitted the data to a simple linear function equation: kobs=kon Peptide+koff where kobs is the observed rate constant; kon and koff are the microscopic association and dissociation rate constants, respectively (Figure 2). The slope and y-axis intercept represent the microscopic association and dissociation rate constant, respectively. To minimize the error associated with the indirect measurement of the dissociation rate constant, we carried out displacement experiments to determine the koff values. The displacement experiments were designed by mixing the preformed complex SPOP MATH-dansylated peptides with a high excess of nondansylated peptide, as described in the Section 4. […] On the basis of these observations, it is possible to conclude that, in the case of binding to MacroH2A and PTEN, there is the presence of an additional step, which escapes detection by stopped-flow experiments and is likely to be negligible in the case of Puc. […] We note that such a case closely resembles the presence of a so-called burst phase, which is frequently observed in protein-folding studies.
Microscopic dissociation rate constants (koff) were directly measured by performing displacement experiments on an Applied Photophysics DX-17MV stopped-flow apparatus (Applied Photophysics). […] The samples were excited at 280 nm and fluorescence emission was collected by using a 330 ± 30 nm bandpass filter. […] The observed rate constants were calculated from the average of five single traces. […]

## CC(C)[C@H](NC(=O)[C@H](CCC(=O)O)NC(=O)[C@H](CC(=O)O)NS(=O)(=O)c1cccc2c(N(C)C)cccc12)C(=O)N[C@H](C(=O)N[C@@H](CO)C(=O)N[C@H](C(=O)N[C@H](C(=O)N[C@@H](CO)C(=O)N[C@@H](CO)C(=O)N[C@@H](CO)C(=O)O)[C@@H](C)O)[C@@H](C)O)[C@@H](C)O [Puc] (HELM PEPTIDE1{[CN(C)c1cccc2c(S(=O)(=O)[*:2])cccc12].D.E.V.T.S.T.T.S.S.S}$$$$V2.0)
[1]
  koff: 241 ± 1 s⁻¹
[2]; kinetic KD from kon and koff
  Kd: 1.7 ± 0.1 µM
[2]; stopped-flow, 2 µM MATH domain
  kon: 9.4e+06 ± 200000 M⁻¹ s⁻¹
[3]; kinetic KD from kon and koff
  Kd: 7.2 ± 0.4 µM
[3]; stopped-flow, 2 µM MATH domain
  kon: 6.3e+06 ± 500000 M⁻¹ s⁻¹
[4]; kinetic KD from kon and koff
  Kd: 3.8 ± 0.1 µM
[4]; stopped-flow, 2 µM MATH domain
  kon: 8.8e+06 ± 500000 M⁻¹ s⁻¹
[5]; kinetic KD from kon and koff
  Kd: 13.3 ± 0.2 µM
[5]; stopped-flow, 2 µM MATH domain
  kon: 1.82e+07 ± 100000 M⁻¹ s⁻¹
[6]; kinetic KD from kon and koff
  Kd: 11.7 ± 0.2 µM
[6]; stopped-flow, 2 µM MATH domain
  kon: 6.71e+06 ± 20000 M⁻¹ s⁻¹
[7]; kinetic KD from kon and koff
  Kd: 21 ± 4 µM
[7]; stopped-flow, 2 µM MATH domain
  kon: 1.44e+07 ± 800000 M⁻¹ s⁻¹
[8]; kinetic KD from kon and koff
  Kd: 9.5 ± 0.1 µM
[8]; stopped-flow, 2 µM MATH domain
  kon: 1.3e+07 ± 2e+06 M⁻¹ s⁻¹
[9]
  koff: 26.1 ± 0.1 s⁻¹
